Measurements from US9169241B2, “Quinolinyloxyphenylsulfonamides” (Max-Planck-Gesellschaft Zur Forderung der Wissenschaften …, priority 2009, dated 2015).
Like-named read-outs stand apart in the source and are kept apart here.

Legend:
[1] = test system: A172; assay: Cell vitality assay (ATP assay, CellTiter-Glo); type: cell-based; conditions: Homo sapiens, A 172; A172, 72 h; Table IIa; read-out: IC50 ATP-Assay after 72 h A172
In short: (§1)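 Luminescent ATP read-out of viable cells; IC50 = concentration at which ATP falls to 50% of DMSO control. Cells seeded at 1000/well, treated 72 h with seven concentrations from 0.195 to 12.5 μM.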

[2] = test system: Hs578T; assay: Cell vitality assay (ATP assay, CellTiter-Glo); type: cell-based; conditions: Homo sapiens, Hs-578T; HS578T cell line, 72 h; Table Ib; read-out: IC50 ATP-Assay HS578T after 72 h
In short: as §1

[3] = test system: SF126; assay: Cell vitality assay (ATP assay, CellTiter-Glo); type: cell-based; conditions: Homo sapiens, SF-126; SF126, 72 h; Table IIa; read-out: IC50 ATP-Assay after 72 h SF126
In short: as §1

[4] = test system: U118; assay: Cell vitality assay (ATP assay, CellTiter-Glo); type: cell-based; conditions: U118, 72 h; Table IIa; read-out: IC50 ATP-Assay after 72 h U118
In short: as §1

[5] = test system: Hs578T; assay: Wound healing migration assay; type: cell-based; conditions: Homo sapiens, Hs-578T; HS578T cell line; Table Ib
In short: (§2)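 Compound exposure at 12.5, 6.25 and 3.125 μM, with DMSO control, on scratch-wounded monolayers (150000 cells/24 well, overnight). Wound closure imaged by microscopy, fixed with crystal violet after 48 h or 72 h depending on cell line; IC50 is the concentration giving 50% wound size between t0 and t48/t72.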

[6] = test system: indicated cell line; assay: Wound healing migration assay (Table IV); type: cell-based; conditions: compounds at 12.5, 6.25, 3.125 μM, 48 h-72 h
In short: as §2

[7] = test system: A172; assay: Matrigel outgrowth assay/branching assay; type: cell-based; conditions: Homo sapiens, A 172, Table Vb, read-out: Total branching inhibition in Matrigel A172
In short: (§3)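 Invasive outgrowth into a 3 mg/ml Matrigel gel is judged from images taken after 48, 72 and 96 h of exposure to 3.125, 1.56 or 0.78 μM compound, with DMSO as control. Positive means total inhibition of branching.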

[8] = test system: Hs578T; assay: Matrigel outgrowth assay/branching assay; type: cell-based; conditions: Homo sapiens, Hs-578T; HS578T cell line; Table Ib; read-out: Total branching inhibition in Matrigel HS578T
In short: as §3

[9] = test system: SF126; assay: Matrigel outgrowth assay/branching assay; type: cell-based; conditions: Homo sapiens, SF-126, Table Vb, read-out: Total branching inhibition in Matrigel SF126
In short: as §3

[10] = test system: U118; assay: Matrigel outgrowth assay/branching assay; type: cell-based; conditions: Table Vb, read-out: Total branching inhibition in Matrigel U118
In short: as §3

[11] = test system: C8161; assay: Apoptosis assay (Cellomics, nucleus condensation); type: cell-based; conditions: Homo sapiens, Table III, read-out: Apoptosis induction in C8161
In short: (§4)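 Cells at 5000 per well were stained live with Hoechst 33342 and imaged on an automated fluorescence microscope after 24 h and 48 h compound exposure (12.5 μM down to 0.39 μM, twofold steps; DMSO control). Per-nucleus intensity variation quantified nuclear condensation; cell counts were also recorded.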

[12] = test system: Hs578T; assay: Apoptosis assay (Cellomics, nucleus condensation); type: cell-based; conditions: Homo sapiens, Hs-578T, Table III, read-out: Apoptosis induction in Hs578T
In short: as §4

[13] = test system: SF126; assay: Apoptosis assay (Cellomics, nucleus condensation); type: cell-based; conditions: Homo sapiens, SF-126, Table III, read-out: Apoptosis induction in SF126
In short: as §4

[14] = test system: SF763; assay: Apoptosis assay (Cellomics, nucleus condensation); type: cell-based; conditions: Table III, read-out: Apoptosis induction in SF763
In short: as §4

[15] = test system: U118; assay: Apoptosis assay (Cellomics, nucleus condensation); type: cell-based; conditions: Table III, read-out: Apoptosis induction in U118
In short: as §4

[16] = test system: U138; assay: Apoptosis assay (Cellomics, nucleus condensation); type: cell-based; conditions: Table III, read-out: Apoptosis induction in U138
In short: as §4

[17] = test system: tumor cell; assay: Matrigel outgrowth assay/branching assay (Table Va); type: cell-based
In short: as §3

[18] = test system: cells; assay: Boyden chamber migration assay (Table VI); type: cell-based; conditions: Homo sapiens, Hs-578T, 16 h, Hs578T cells; 16 h migration
In short: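 Migration read-out is a count of fixed cells on the underside of an […] insert membrane after 16 h. Chemoattractant was medium with 10% FCS in the lower chamber; 20000 cells started in serum-free medium with 0.1% BSA above, and those left on top were removed by swab.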

[19] = test system: viable cells in culture; assay: Cell viability assay at 10 μM (CellTiter-Glo, Table VII); type: cell-based; conditions: compound 10 μM, 72 h;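 note: graded A 0-20%; B 21-40%; C 41-60%; D over 60% viable cells relative to DMSO control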
In short: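 Cells were seeded at 1000 cells/well in 96-well plates in 100 μl culture medium and incubated for 72 h with 10 μM compound or a DMSO control. ATP content, which reflects metabolically active and therefore viable cells, was then determined by CellTiter-Glo luminescence (Promega) per the manufacturer's instructions and expressed relative to the DMSO control.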

[20] = Homo sapiens, A 172, A172 cells, read-out: IC50 Wound healing Assay A172
[21] = Homo sapiens, SF-126, SF126 cells, read-out: IC50 Wound healing Assay SF126
[22] = U118 cells, read-out: IC50 Wound healing Assay U118

## COc1cc2c(Oc3ccc(NS(=O)(=O)c4ccccc4C(F)(F)F)cc3F)ccnc2cc1OCCCN1CCCCC1 [Example 4, N-{3-Fluoro-4-[6-methoxy-7-(3-piperidin-1-yl-propoxy)-quinolin-4-yloxy]-phenyl}-2-trifluoromethyl-benzenesulfonamide]
[1]
  IC50: ≤ 12.5 µM
[2]
  IC50: ≤ 12.5 µM
[3]
  IC50: ≤ 12.5 µM
[4]
  IC50: ≤ 12.5 µM
[5]
  IC50: ≤ 12.5 µM
[6]; [20]
  IC50: ≤ 12.5 µM
[6]; [21]
  IC50: ≤ 12.5 µM
[6]; [22]
  IC50: ≤ 12.5 µM
[7]
  IC100: > 12.5 µM
[8]
  IC50: ≤ 10 µM
[9]
  IC100: ≤ 12.5 µM
[10]
  IC100: ≤ 12.5 µM
other
  melting point: 173 to 175 °C

## COc1cc2c(Oc3ccc(NS(=O)(=O)c4cc(F)ccc4F)cc3F)ccnc2cc1OCCCN1CCCCC1C (stereo not drawn) [Example 151, 2,5-Difluoro-N-(3-fluoro-4-{6-methoxy-7-[3-(2-methyl-piperidin-1-yl)-propoxy]-quinolin-4-yloxy}-phenyl)-benzenesulfonamide]
[1]
  IC50: ≤ 12.5 µM
[2]
  IC50: ≤ 12.5 µM
[3]
  IC50: ≤ 12.5 µM
[4]
  IC50: ≤ 12.5 µM
[5]
  IC50: ≤ 12.5 µM
[6]; [20]
  IC50: ≤ 12.5 µM
[6]; [21]
  IC50: ≤ 12.5 µM
[6]; [22]
  IC50: ≤ 12.5 µM
[7]
  IC100: ≤ 12.5 µM
[8]
  IC50: ≤ 10 µM
[9]
  IC100: ≤ 12.5 µM
[10]
  IC100: ≤ 12.5 µM
other
  melting point: 120 to 122 °C

## COc1cc2c(Oc3ccc(NS(=O)(=O)c4cc(F)ccc4F)cc3F)ccnc2cc1OCCCN(C)C [Example 177, N-{4-[7-(3-Dimethylamino-propoxy)-6-methoxy-quinolin-4-yloxy]-3-fluoro-phenyl}-2,5-difluoro-benzenesulfonamide]
[1]
  IC50: ≤ 12.5 µM
[2]
  IC50: ≤ 12.5 µM
[3]
  IC50: ≤ 12.5 µM
[4]
  IC50: ≤ 12.5 µM
[5]
  IC50: ≤ 12.5 µM
[6]; [20]
  IC50: ≤ 12.5 µM
[6]; [21]
  IC50: ≤ 12.5 µM
[6]; [22]
  IC50: ≤ 12.5 µM
[7]
  IC100: ≤ 12.5 µM
[8]
  IC50: ≤ 10 µM
[9]
  IC100: ≤ 12.5 µM
[10]
  IC100: ≤ 12.5 µM
other
  melting point: 108 to 110 °C

## COc1cc2c(Oc3ccc(NS(=O)(=O)c4cc(F)ccc4F)cc3F)ccnc2cc1OCCCCN1CCOCC1 [Example 83, 2,5-Difluoro-N-{3-fluoro-4-[6-methoxy-7-(4-morpholin-4-yl-butoxy)-quinolin-4-yloxy]-phenyl}-benzenesulfonamide]
[11]
  IC50: ≤ 12.5 µM
[12]
  IC50: ≤ 12.5 µM
[13]
  IC50: ≤ 12.5 µM
[14]
  IC50: ≤ 12.5 µM
[15]
  IC50: ≤ 12.5 µM
[16]
  IC50: ≤ 12.5 µM
[6]; Homo sapiens, C8161 cells, read-out: IC50 Wound healing Assay C8161
  IC50: ≤ 12.5 µM
[6]; SF763 cells, read-out: IC50 Wound healing Assay SF763
  IC50: ≤ 12.5 µM
[8]
  IC50: ≤ 10 µM
[17]; Homo sapiens, C8161 cells, read-out: Total branching inhibition in Matrigel C8161
  IC50: ≤ 5 µM
[17]; Homo sapiens, Hs-578T, Hs578T cells, read-out: Total branching inhibition in Matrigel Hs578T
  IC50: ≤ 5 µM
[17]; U118 cells, read-out: Total branching inhibition in Matrigel U118
  IC50: ≤ 5 µM
[17]; U138 cells, read-out: Total branching inhibition in Matrigel U138
  IC50: ≤ 5 µM
[18]
  IC50: ≤ 5 µM
[19]; Homo sapiens, HCT-116, HCT116 def, read-out: percentage (%) of viable cells HCT 116def
  viability at 10 µM: 21 to 40%
[19]; Homo sapiens, HCT-116, HCT116 wt, read-out: percentage (%) of viable cells HCT 116wt
  viability at 10 µM: 0 to 20%
[19]; Homo sapiens, HT-29, HT29, read-out: percentage (%) of viable cells HT29
  viability at 10 µM: 0 to 20%
[19]; Homo sapiens, NCI-H358, H358, read-out: percentage (%) of viable cells H358
  viability at 10 µM: 0 to 20%
[19]; Homo sapiens, NCI-H1650, H1650, read-out: percentage (%) of viable cells H1650
  viability at 10 µM: 21 to 40%
[19]; Homo sapiens, NCI-H1666, H1666, read-out: percentage (%) of viable cells H1666
  viability at 10 µM: 21 to 40%
[19]; Homo sapiens, NCI-H1975, H1975, read-out: percentage (%) of viable cells H1975
  viability at 10 µM: 41 to 60%
[19]; Homo sapiens, NCI-H1993, H1993, read-out: percentage (%) of viable cells H1993
  viability at 10 µM: 0 to 20%
[19]; Homo sapiens, A549, read-out: percentage (%) of viable cells A549
  viability at 10 µM: 21 to 40%
[19]; Homo sapiens, HCC827, read-out: percentage (%) of viable cells HCC827
  viability at 10 µM: 0 to 20%
[19]; Homo sapiens, SW480, read-out: percentage (%) of viable cells SW480
  viability at 10 µM: 21 to 40%
[19]; RKO, read-out: percentage (%) of viable cells RKO
  viability at 10 µM: > 60%
other
  melting point: 156 to 158 °C
